Laboratory results reported in PubChem BioAssay AID330 (DTP/NCI, 2004).
“And” between values parts separate entries of the source, which are not always exact repeats. Equal entries are not always repeated. Toxic doses and inconclusive results are not listed. Rule for the calls: active = survival T/C of 150% or more; inactive = T/C below 125% in these data.

Tested on: P388 leukemia ip, CD2F1 mice, survival T/C
Test: NCI In Vivo Anticancer Drug Screen. Data for tumor model P388 Leukemia (intraperitoneal) in CD2F1 (CDF1) mice
Settings: endpoint: median survival time, higher = longer survival
Outline: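 Mice carrying the transplanted tumor received test compound or vehicle. Survival was recorded in each group, and the value is the treated-group measurement divided by that of the vehicle-treated control group.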

[1] = dose: 60.0 mg/kg/injection, schedule: Q01DX005 (ip), vehicle: saline with Tween-80
[2] = dose: 120.0 mg/kg/injection, schedule: Q01DX005 (ip), vehicle: saline with Tween-80
[3] = dose: 240.0 mg/kg/injection, schedule: Q01DX005 (ip), vehicle: saline with Tween-80
[4] = dose: 50.0 mg/kg/injection, schedule: Q01DX005 (ip), vehicle: Klucel (hydroxypropylcellulose) (HPC)
[5] = dose: 100.0 mg/kg/injection, schedule: Q01DX005 (ip), vehicle: Klucel (hydroxypropylcellulose) (HPC)
[6] = dose: 200.0 mg/kg/injection, schedule: Q01DX005 (ip), vehicle: Klucel (hydroxypropylcellulose) (HPC)
[7] = dose: 50.0 mg/kg/injection, schedule: Q01DX005 (ip), vehicle: saline with Tween-80
[8] = dose: 100.0 mg/kg/injection, schedule: Q01DX005 (ip), vehicle: saline with Tween-80
[9] = dose: 200.0 mg/kg/injection, schedule: Q01DX005 (ip), vehicle: saline with Tween-80
[10] = dose: 100.0 mg/kg/injection, schedule: Q04DX003 (ip), vehicle: saline
[11] = dose: 200.0 mg/kg/injection, schedule: Q01DX009 (ip), vehicle: saline with Tween-80
[12] = dose: 200.0 mg/kg/injection, schedule: Q04DX003 (ip), vehicle: saline
[13] = dose: 400.0 mg/kg/injection, schedule: Q04DX003 (ip), vehicle: saline
[14] = dose: 60.0 mg/kg/injection, schedule: Q01DX005 (ip), vehicle: Klucel (hydroxypropylcellulose) (HPC)
[15] = dose: 120.0 mg/kg/injection, schedule: Q01DX005 (ip), vehicle: Klucel (hydroxypropylcellulose) (HPC)
[16] = dose: 240.0 mg/kg/injection, schedule: Q01DX005 (ip), vehicle: Klucel (hydroxypropylcellulose) (HPC)
[17] = dose: 100.0 mg/kg/injection, schedule: Q01DX009 (ip), vehicle: saline with Tween-80
[18] = dose: 400.0 mg/kg/injection, schedule: Q01DX009 (ip), vehicle: saline with Tween-80
[19] = dose: 50.0 mg/kg/injection, schedule: Q01DX009 (ip), vehicle: Klucel (hydroxypropylcellulose) (HPC)

Measured: T/C

O=C1CC2(CC=CCC23OCCO3)CC(CI)O1 (configuration not stated)
inactive: dose: 2.5 mg/kg/injection, schedule: Q01DX005 (ip), vehicle: acid diluted with saline 106 % of control | dose: 5.0 mg/kg/injection, schedule: Q01DX005 (ip), vehicle: Klucel (hydroxypropylcellulose) (HPC) 100 % of control | dose: 5.0 mg/kg/injection, schedule: Q01DX005 (ip), vehicle: acid diluted with saline 111 % of control | dose: 10.0 mg/kg/injection, schedule: Q01DX005 (ip), vehicle: Klucel (hydroxypropylcellulose) (HPC) 100 % of control | dose: 10.0 mg/kg/injection, schedule: Q01DX005 (ip), vehicle: acid diluted with saline 93 % of control | dose: 20.0 mg/kg/injection, schedule: Q01DX005 (ip), vehicle: Klucel (hydroxypropylcellulose) (HPC) 98 % of control | dose: 20.0 mg/kg/injection, schedule: Q01DX005 (ip), vehicle: acid diluted with saline 100 % of control | dose: 40.0 mg/kg/injection, schedule: Q01DX005 (ip), vehicle: Klucel (hydroxypropylcellulose) (HPC) 103 % of control

COC(=O)CSc1nnc(CSc2ccc(Cl)cc2)n1-c1ccccc1
inactive: [1] 93 % of control | [2] 92 % of control | [3] 96 % of control

CN(C)C1=CC(=O)NC(c2ccccc2)C1 (configuration not stated)
inactive: [4] 102 % of control | [5] 99 % of control | [6] 99 % of control

COC(=O)[C@]1(C)CCC[C@]2(C)c3ccc(C(C)C)cc3C(=O)C[C@@H]12
inactive: [1] 95 % of control | [2] 94 % of control | [3] 93 % of control

CO[Si](CCCN)(OC)OC
inactive: dose: 50.0 mg/kg/injection, schedule: Q01DX009 (ip), vehicle: saline 119 % of control | dose: 100.0 mg/kg/injection, schedule: Q01DX009 (ip), vehicle: saline 105 % of control | dose: 200.0 mg/kg/injection, schedule: Q01DX009 (ip), vehicle: saline 110 % of control

C#CCn1c(=O)c2cc3ccccc3nc2n(CC#C)c1=O
inactive: [4] 96 % of control | [5] 93 % of control

COCOc1cccc2c1CCC2
inactive: [7] 100 % of control | [8] 100 % of control | [9] 100 % of control

CCN(CC)CC(C)(C)C(=O)/C=C/c1ccc(Cl)cc1
inactive: dose: 60.0 mg/kg/injection, schedule: Q01DX005 (ip), vehicle: saline 110 % of control | dose: 120.0 mg/kg/injection, schedule: Q01DX005 (ip), vehicle: saline 116 % of control

O=[N+]([O-])c1ccc2c(N=Nc3c(O)ccc4ccccc34)c(O)cc(S(=O)(=O)O)c2c1
inactive: [10] 100 % of control | dose: 132.0 mg/kg/injection, schedule: Q01DX009 (ip), vehicle: saline with Tween-80 109 % of control | [11] 109 % of control | [12] 100 % of control | dose: 300.0 mg/kg/injection, schedule: Q01DX009 (ip), vehicle: saline with Tween-80 113 % of control | [13] 111 % of control

Cc1cc(=O)oc2cc3c(cc12)CCCN3
inactive: [14] 101 % of control | [15] 104 % of control | [16] 96 % of control

C/C(=N\NC(=S)N1CCN(c2ccccn2)CC1)c1nccs1
inactive: dose: 6.25 mg/kg/injection, schedule: Q01DX005 (ip), vehicle: saline with Tween-80 105 % of control | dose: 12.5 mg/kg/injection, schedule: Q01DX005 (ip), vehicle: saline with Tween-80 113 % of control

O=C1CNC(=O)N1c1ccccc1
inactive: [17] 103 % of control | [11] 98 % of control | [18] 103 % of control

C/C=C1\CN2C3CC1C1(CN4c5c(OC)cc(OC)c(OC)c5C56CC7C(COC45O1)C1CC6N7C/C1=C/COC)C2CC31C(=O)Nc2c(OC)cc(OC)c(OC)c21 (configuration not stated)
inactive: dose: 1.5 mg/kg/injection, schedule: Q01DX005 (ip), vehicle: Klucel (hydroxypropylcellulose) (HPC) 97 % of control | dose: 3.0 mg/kg/injection, schedule: Q01DX005 (ip), vehicle: Klucel (hydroxypropylcellulose) (HPC) 97 % of control | dose: 6.0 mg/kg/injection, schedule: Q01DX005 (ip), vehicle: Klucel (hydroxypropylcellulose) (HPC) 108 % of control | dose: 12.0 mg/kg/injection, schedule: Q01DX005 (ip), vehicle: Klucel (hydroxypropylcellulose) (HPC) 96 % of control

c1cc[n+](-c2nc3ccccc3[n-]2)cc1
inactive: [10] 100 % of control | [12] 98 % of control | [13] 100 % of control

COc1ccc(C(=O)CSC(=S)N2CCCCC2)cc1
inactive: [19] 86 % of control | dose: 100.0 mg/kg/injection, schedule: Q01DX009 (ip), vehicle: Klucel (hydroxypropylcellulose) (HPC) 86 % of control

Cc1ccc(S(=O)(=O)N/N=C2\CC/C(=N\NS(=O)(=O)c3ccc(C)cc3)[C@@H]3CC=CC[C@H]23)cc1
inactive: [7] 92 % of control | [8] 92 % of control | [9] 89 % of control

COc1ccc2c(c1)C[N+](C)(CCc1ccccc1)[B-]O2 (configuration not stated)
inactive: dose: 50.0 mg/kg/injection, schedule: Q01DX005 (ip), vehicle: saline + Tween-80 + alcohol 91 % of control | dose: 100.0 mg/kg/injection, schedule: Q01DX005 (ip), vehicle: saline + Tween-80 + alcohol 93 % of control

CC(=O)Nc1ccc2c(c1)Cc1ccccc1-2
inactive: [17] 100 % of control | [11] 95 % of control | [18] 95 % of control

CCCCCCCCCCCCCC[N+](C)([O-])CCCCCC[N+](C)([O-])CCCCCCCCCCCCCC (configuration not stated)
inactive: dose: 12.5 mg/kg/injection, schedule: Q01DX009 (ip), vehicle: Klucel (hydroxypropylcellulose) (HPC) 94 % of control | dose: 25.0 mg/kg/injection, schedule: Q01DX009 (ip), vehicle: Klucel (hydroxypropylcellulose) (HPC) 100 % of control | [19] 92 % of control and 93 % of control

O=C(O)C1OC(N(O)c2ccc(Oc3ccc(Cl)cc3)cc2)C(O)C(O)C1O (configuration not stated)
inactive: [1] 106 % of control | [2] 100 % of control | [3] 100 % of control

CCOC(=O)N1C=CC2Oc3c(Cl)c(Cl)c(Cl)c(Cl)c3OC2C=N1 (configuration not stated)
inactive: [14] 102 % of control | [15] 101 % of control | [16] 101 % of control

C=C1C2CCC3(C)C(c4ccoc4)OC(=O)CC13OC1CC(=O)C(C)(C)C(CC(=O)OC)C12C (configuration not stated)
inactive: dose: 25.0 mg/kg/injection, schedule: Q01DX009 (ip), vehicle: saline with Tween-80 99 % of control | dose: 50.0 mg/kg/injection, schedule: Q01DX009 (ip), vehicle: saline with Tween-80 99 % of control | [17] 99 % of control | [11] 98 % of control

CC1=CC(=O)C2C1CC(=O)C1(C)C3C(=O)OC(C3C)C(O)C21 (configuration not stated)
inactive: dose: 2.0 mg/kg/injection, schedule: Q01DX005 (ip), vehicle: Klucel (hydroxypropylcellulose) (HPC) 94 % of control | dose: 4.0 mg/kg/injection, schedule: Q01DX005 (ip), vehicle: Klucel (hydroxypropylcellulose) (HPC) 100 % of control | dose: 8.0 mg/kg/injection, schedule: Q01DX005 (ip), vehicle: Klucel (hydroxypropylcellulose) (HPC) 103 % of control | dose: 16.0 mg/kg/injection, schedule: Q01DX005 (ip), vehicle: Klucel (hydroxypropylcellulose) (HPC) 98 % of control | dose: 32.0 mg/kg/injection, schedule: Q01DX005 (ip), vehicle: Klucel (hydroxypropylcellulose) (HPC) 100 % of control

O/N=C(/C=N/O)SCCSC(/C=N/O)=N/O
inactive: [4] 110 % of control | [5] 109 % of control | [6] 112 % of control

C=CC1(C)OC(=NC(C)(C)CO)c2cc(C)c(OC)cc21 (configuration not stated)
inactive: [7] 98 % of control | [8] 97 % of control

COC(=O)[C@@]12OC[C@]34[C@H]([C@@H](O)[C@@H]1O)[C@@]1(C)C=C(OC5OC(CO)C(O)C(O)C5O)C(=O)C(C)[C@@H]1C[C@H]3OC(=O)[C@H](OC(=O)C=C(C)C)[C@@H]24 (some centres not stated)
inactive: dose: 0.25 mg/kg/injection, schedule: Q01DX009 (ip), vehicle: saline + alcohol 107 % of control | dose: 0.5 mg/kg/injection, schedule: Q01DX009 (ip), vehicle: saline + alcohol 112 % of control | dose: 1.0 mg/kg/injection, schedule: Q01DX009 (ip), vehicle: saline + alcohol 112 % of control | dose: 2.0 mg/kg/injection, schedule: Q01DX009 (ip), vehicle: saline + alcohol 106 % of control | dose: 4.0 mg/kg/injection, schedule: Q01DX009 (ip), vehicle: saline + alcohol 112 % of control | dose: 8.0 mg/kg/injection, schedule: Q01DX009 (ip), vehicle: saline + alcohol 111 % of control
